Data on 19 compounds can be found in patent publication US12643887B2, “Heterocyclic derivatives with cardiomyocyte proliferation activity for treatment of heart diseases” (Tongji University, priority 2019, dated 2026).

Read-outs that look alike come from different tables or passages of the source.

One test deals with T1, human CLK1 (Homo sapiens, UniProt P49759).
T1 construct: Recombinant human CLK1 (129-end); GST (N); purchased SignalChem C57-11G; host or cells: Sf9 insect cells
Nature of the test: CLK1 enzyme assay (ADP-Glo). The test is classed as biochemical. Put shortly:
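GST-tagged CLK1 (129-end, Sf9-expressed) at 16 nM was preincubated with compound 30 min at 25 °C in 40 mM Tris pH 7.5, 20 mM MgCl2, 0.1 mg/ml BSA, 50 μM DTT. Reaction with 2 μM substrate and 10 μM ATP ran 60 min at 25 °C. ADP-Glo luminescence gave IC50 by four-parameter fit.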

The target in the next test is T2, human HIPK1 (Homo sapiens, UniProt Q86Z02).
T2 construct: Recombinant human HIPK1 (156-555); GST (N); purchased SignalChem H03-11G; host or cells: Sf9 insect cells
T2 sequence (Q86Z02 156-555): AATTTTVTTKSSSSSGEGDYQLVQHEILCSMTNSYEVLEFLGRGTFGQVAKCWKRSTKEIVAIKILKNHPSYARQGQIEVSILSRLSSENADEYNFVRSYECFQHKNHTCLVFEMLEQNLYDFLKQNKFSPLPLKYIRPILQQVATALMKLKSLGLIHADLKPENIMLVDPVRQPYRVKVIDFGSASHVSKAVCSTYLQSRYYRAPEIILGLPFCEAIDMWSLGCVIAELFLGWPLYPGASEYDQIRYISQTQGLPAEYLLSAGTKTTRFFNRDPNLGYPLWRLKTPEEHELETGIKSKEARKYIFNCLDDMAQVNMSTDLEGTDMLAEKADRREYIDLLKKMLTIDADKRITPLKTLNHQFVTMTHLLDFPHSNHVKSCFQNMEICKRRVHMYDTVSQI
Nature of the test: HIPK1 enzyme assay (ADP-Glo). The test is classed as biochemical. Put shortly:
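Recombinant GST-tagged HIPK1 (156-555, Sf9), 4 nM, preincubated 30 min at 25° C with compound in Tris pH 7.5/MgCl2/BSA/DTT, then reacted 90 min with 0.05 mg/ml MBP and 5 μM ATP. ADP formed read by ADP-Glo luminescence; IC50 from four-parameter logistic fit of % inhibition versus Max/Min controls.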

[1] abbreviates: ADP-Glo, ATP 10 μM, read-out: CLK1 IC50.
Setting [2] is: ADP-Glo, ATP 5 μM, read-out: HIPK1 IC50.

T1 sequence (P49759 129-484 limits assumed): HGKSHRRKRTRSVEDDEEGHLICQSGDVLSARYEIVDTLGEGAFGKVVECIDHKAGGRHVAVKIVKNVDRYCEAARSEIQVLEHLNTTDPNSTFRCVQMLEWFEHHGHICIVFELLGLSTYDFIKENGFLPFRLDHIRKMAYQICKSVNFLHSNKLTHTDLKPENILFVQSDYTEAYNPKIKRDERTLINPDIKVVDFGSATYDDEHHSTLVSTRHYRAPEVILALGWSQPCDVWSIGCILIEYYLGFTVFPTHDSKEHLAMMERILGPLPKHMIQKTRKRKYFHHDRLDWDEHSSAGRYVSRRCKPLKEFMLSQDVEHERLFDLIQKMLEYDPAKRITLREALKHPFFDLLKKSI

As to `CCN(C1=N/C(=C\c2ccc3c(c2)OCO3)C(=O)N1)c1ccccc1` [Example 4, (Z)-5-(benzo[d][1,3]dioxol-5-ylmethylene)-2-(ethyl(phenyl)amino)-3,5-dihydro-4H-imidazol-4-one], the IC50 at human CLK1 (setting [1]) is 100 to 1000 nM; on human HIPK1 (setting [2]), over 10000 nM.

Consider `CC(=O)N(C1=N/C(=C\c2ccc3c(c2)OCO3)C(=O)N1)c1ccccc1` [Example 5, (Z)—N-(4-(benzo[d][1,3]dioxol-5-ylmethylene)-5-oxo-4,5-dihydro-1H-imidazol-2-yl)-N-phenylacetamide], for which the IC50 against human CLK1 and on human HIPK1 was 100 to 1000 nM each time.

On to `CN(C1=N/C(=C\c2ccc3ncccc3c2)C(=O)N1)c1ccc2ncsc2c1` [Example 85, (Z)-2-(benzo[d]thiazol-6-yl(methyl)amino)-5-(quinolin-6-ylmethylene)-3,5-dihydro-4H-imidazol-4-one], for which the results for the IC50 on human CLK1 (setting [1]) and on human HIPK1 (setting [2]) were 100 to 1000 nM and over 10000 nM, respectively.

Consider `CN(C1=N/C(=C\c2ccc3ncsc3c2)C(=O)N1)c1ccc2c(c1)ncn2C` [Example 86, (Z)-5-(benzo[d]thiazol-6-ylmethylene)-2-(methyl(1-methyl-1H-benzo[d]imidazol-5-yl)amino)-3,5-dihydro-4H-imidazol-4-one], for which the IC50 on human CLK1 (setting [1]) and on human HIPK1 (setting [2]) was 1000 to 10000 nM throughout.

As for `CN(C1=N/C(=C\c2ccc3[nH]ccc3c2)C(=O)N1)c1ccc2ncsc2c1` [Example 87, (Z)-5-((1H-indol-5-yl)methylene)-2-(benzo[d]thiazol-6-yl(methyl)amino)-3,5-dihydro-4H-imidazol-4-one], the IC50 at human CLK1 (setting [1]) and on human HIPK1 (setting [2]) was over 10000 nM throughout.

`CN1C(=O)/C(=C/c2ccc3ncsc3c2)N=C1Nc1ccc2ncsc2c1` [Example 88, (Z)-2-(benzo[d]thiazol-6-ylamino)-5-(benzo[d]thiazol-6-ylmethylene)-3-methyl-3,5-dihydro-4H-imidazol-4-one]: the IC50 at human CLK1 (setting [1]) was under 100 nM; at human HIPK1 (setting [2]), over 10000 nM.

Take `COCCN(C1=N/C(=C\c2ccc3ncsc3c2)C(=O)N1)c1ccc2ncsc2c1` [Example 89, (Z)-2-(benzo[d]thiazol-6-yl(2-methoxyethyl)amino)-5-(benzo[d]thiazol-6-ylmethylene)-3,5-dihydro-4H-imidazol-4-one]: the results for the IC50 at human CLK1 (setting [1]) and on human HIPK1 (setting [2]) were under 100 nM and 1000 to 10000 nM, respectively.

With `Cc1nc2ccc(NC3=N/C(=C\c4ccc5ncsc5c4)C(=O)N3)cc2s1` [Example 90, (Z)-5-(benzo[d]thiazol-6-ylmethylene)-2-((2-methylbenzo[d]thiazol-6-yl)amino)-3,5-dihydro-4H-imidazol-4-one], the values for the IC50 at human CLK1 (setting [1]) and on human HIPK1 (setting [2]) were under 100 nM and over 10000 nM, respectively.

On to `CC(=O)N(C1=N/C(=C\c2ccc3ncsc3c2)C(=O)N1)c1ccc2ncsc2c1` [Example 91, (Z)—N-(benzo[d]thiazol-6-yl)-N-(4-(benzo[d]thiazol-6-ylmethylene)-5-oxo-4,5-dihydro-1H-imidazol-2-yl)acetamide], for which the IC50 was under 100 nM at human CLK1 (setting [1]) and 100 to 1000 nM at human HIPK1 (setting [2]).

As for `O=C1NC(Nc2ccc3ncsc3c2)=N/C1=C\c1cncs1` [Example 92, (Z)-2-(benzo[d]thiazol-6-ylamino)-5-(thiazol-5-ylmethylene)-3,5-dihydro-4H-imidazol-4-one], the values for the IC50 on human CLK1 (setting [1]) and on human HIPK1 (setting [2]) were under 100 nM and 100 to 1000 nM, respectively.

On to `Cn1cnc2ccc(NC3=N/C(=C\c4ccc5ncsc5c4)C(=O)N3)cc21` [Example 93, (Z)-5-(benzo[d]thiazol-6-ylmethylene)-2-((1-methyl-1H-benzo[d]imidazol-6-yl)amino)-3,5-dihydro-4H-imidazol-4-one], for which the IC50 was under 100 nM on human CLK1 (setting [1]) and 100 to 1000 nM at human HIPK1 (setting [2]).

`O=C1NC(Nc2ccc3ncsc3c2)=N/C1=C\c1ccc2nccnc2c1` [Example 94, (Z)-2-(benzo[d]thiazol-6-ylamino)-5-(quinoxalin-6-ylmethylene)-3,5-dihydro-4H-imidazol-4-one]: the IC50 on human CLK1 (setting [1]) and at human HIPK1 (setting [2]) was over 10000 nM each time.

As to `O=C1NC(Nc2ccc3ncsc3c2)=N/C1=C\c1ccc2cn[nH]c2c1` [Example 95, (Z)-5-((1H-indazol-6-yl)methylene)-2-(benzo[d]thiazol-6-ylamino)-3,5-dihydro-4H-imidazol-4-one], the IC50 on human CLK1 (setting [1]) and on human HIPK1 (setting [2]) was over 10000 nM in each case.

As to `O=C1NC(=S)N/C1=C\c1ccc2sccc2c1` [Example 96, (Z)-5-(benzo[b]thiophen-5-ylmethylene)-2-thioxoimidazolidin-4-one], the IC50 on human CLK1 (setting [1]) and at human HIPK1 (setting [2]) was over 10000 nM throughout.

For the compound `O=C1NC(Nc2ccc3nc[nH]c3c2)=N/C1=C\c1ccc2ncsc2c1` [Example 97, (Z)-2-((1H-benzo[d]imidazol-6-yl)amino)-5-(benzo[d]thiazol-6-ylmethylene)-3,5-dihydro-4H-imidazol-4-one], the half-maximal inhibitory concentration (IC50) at human CLK1 (setting [1]) and at human HIPK1 (setting [2]) was 100 to 1000 nM throughout.

Consider `Nc1ccc(NC2=N/C(=C\c3ccc4ncsc4c3)C(=O)N2)cc1` [Example 98, (Z)-2-((4-aminophenyl)amino)-5-(benzo[d]thiazol-6-ylmethylene)-3,5-dihydro-4H-imidazol-4-one], for which the IC50 is under 100 nM on human CLK1 (setting [1]) and 100 to 1000 nM at human HIPK1 (setting [2]).

On to `O=C1NC(N(Cc2ccccc2)c2ccc3ncsc3c2)=N/C1=C\c1ccc2ncsc2c1` [Example 99, (Z)-2-(benzo[d]thiazol-6-yl(benzyl)amino)-5-(benzo[d]thiazol-6-ylmethylene)-3,5-dihydro-4H-imidazol-4-one], for which the IC50 on human CLK1 (setting [1]) was under 100 nM; on human HIPK1 (setting [2]), over 10000 nM.

Consider `CC(C)Nc1nc2ccc(NC3=N/C(=C\c4ccc5ncsc5c4)C(=O)N3)cc2s1` [Example 100, (Z)-5-(benzo[d]thiazol-6-ylmethylene)-2-((2-(isopropylamino)benzo[d]thiazol-6-yl)amino)-3,5-dihydro-4H-imidazol-4-one], for which the IC50 at human CLK1 (setting [1]) was 1000 to 10000 nM; on human HIPK1 (setting [2]), over 10000 nM.

For `O=C1NC(Nc2ccc3sccc3c2)=N/C1=C\c1ccc2ncsc2c1` [Example 101, (Z)-2-(benzo[b]thiophen-5-ylamino)-5-(benzo[d]thiazol-6-ylmethylene)-3,5-dihydro-4H-imidazol-4-one], the figures for the IC50 at human CLK1 (setting [1]) and on human HIPK1 (setting [2]) were 100 to 1000 nM and over 10000 nM, respectively.
